Source: ChEMBL document CHEMBL1157982, “Isolation, identification, and enantioselective synthesis of octane-1,3,7-triol: determination of its absolute configuration” (J Nat Prod, 1999)

Key:
Bacillus subtilis = assay: Antibacterial activity against Bacillus subtilis at 5 umol/L; format: functional
[1] = Toxicity in rat; format: organism-based; details: in vivo

## CCCCC[C@@H](O)CCO
Bacillus subtilis
  Activity: 50%
[1]
  LD50: 20000 mg/kg
